Molecules are shown by their SMILES.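 Results reflect a 48-hour exposure of cells in 96-well plates to compound at five concentrations. Abbreviation: GI50, concentration required for 50% inhibition of growth.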 Activity calls are given as the source filed them. Cut-off read from the data, not from the text of the source: active = GI50 up to about 1.1 µM and inactive = higher.

Test in all cases: NCI-60 cell line screen, 48 h
The test system of assay [1] is CAKI-1.
In assay [2] the test system is HCT-15.
For assay [3], the system named is MDA-MB-231.
Assay [4] has as its system UACC-62.
The subject of assay [5] is LOX IMVI.
In assay [6] the test system is ACHN.
The subject of assay [7] is SK-OV-3.
The test system of assay [8] is BT-549.
The test system of assay [9] is RPMI-8226.
The test system of assay [10] is HT-29.
Assay [11] concerns M14.
The subject of assay [12] is Malme-3M.
The subject of assay [13] is SK-MEL-28.
In assay [14] the test system is MCF7.
The subject of assay [15] is SF-295.
Assay [16] has as its system OVCAR-5.
In assay [17] the test system is MDA-N.
Assay [18] concerns SNB-19.
In assay [19] the test system is NCI-H226.
Assay [20] has as its system HCC 2998.

Take `O=Cc1c2n(c3ccccc13)N[C@@](Cc1ccc(O)cc1)(C(=O)O)C2`: the GI50 is > 100 µM (inactive) in assay [1]; 47.3 µM in assay [2]; > 100 µM (inactive) in [3]; > 100 µM (inactive) in assay [4]; 55.2 µM (inactive) in assay [5]; 62.7 µM (inactive) in assay [6]. The GI50 in assay [7] was 77.3 µM (inactive); in [8], > 100 µM (inactive); in [9], > 100 µM (inactive); in [10], > 100 µM (inactive); in assay [11] it was 65.6 µM (inactive); in [12] it was 60.3 µM (inactive). Besides, the GI50 is > 100 µM (inactive) in assay [13]; 55.5 µM (inactive) in assay [14]; 63.2 µM (inactive) in assay [15]; > 100 µM (inactive) in assay [16]; > 100 µM (inactive) in assay [17]; > 100 µM (inactive) in assay [18]. In [19], the GI50 is > 100 µM (inactive).

With `O=S(=O)(/N=C1/S/C(=N\c2ccccc2)N(c2ccccc2)/C1=N/S(=O)(=O)c1ccccc1)c1ccccc1`, the GI50 in assay [2] was 14.8 µM; in assay [3], 13.7 µM (inactive); in assay [4], 17.2 µM (inactive); in assay [6], 19.5 µM (inactive); in [8], 24.1 µM (inactive); in assay [9], 17.7 µM (inactive). Also, the GI50 is 22.8 µM (inactive) in [10]; 20.4 µM (inactive) in assay [11]; 20.9 µM (inactive) in assay [20]; 22.5 µM (inactive) in assay [12]; 16.6 µM (inactive) in assay [13]; 20.5 µM (inactive) in [14]. For the same compound, the GI50 was 20.8 µM (inactive) in assay [16], 16.6 µM (inactive) in assay [17], 24 µM (inactive) in [18] and 19.8 µM (inactive) in assay [19].

Regarding `NC(=O)NCCCC(NC(=O)OCCCCCCn1ccc(=O)[nH]c1=O)C(=O)O` (configuration not stated), the GI50 is > 100 µM (inactive) in assay [1]; over 100 µM in assay [2]; > 100 µM (inactive) in assay [3]; > 100 µM (inactive) in assay [4]; > 100 µM (inactive) in assay [5]; > 100 µM (inactive) in [6]. Besides, the GI50 in assay [7] is > 100 µM (inactive); in assay [8], > 100 µM (inactive); in assay [9], 34.5 µM (inactive); in assay [10] it was > 100 µM (inactive); in [11], > 100 µM (inactive); in assay [20], > 100 µM (inactive). Further, the GI50 in assay [13], in assay [14], in assay [15], in assay [16], in assay [17] and in assay [18] was > 100 µM (inactive) each time. In assay [19], the GI50 was > 100 µM (inactive).

As to `CCC(CC)(CO)CNc1cc(Cl)nc(N)n1`, the GI50 was > 100 µM (inactive) in assay [1]; over 100 µM in assay [2]; > 100 µM (inactive) in [3]; > 100 µM (inactive) in assay [4]; > 100 µM (inactive) in assay [5]; > 100 µM (inactive) in assay [6]. The GI50 is > 100 µM (inactive) in assay [7]; > 100 µM (inactive) in [8]; 92.9 µM (inactive) in [9]; > 100 µM (inactive) in [10]; > 100 µM (inactive) in [12]; > 100 µM (inactive) in [13]. The GI50 in assay [14] is > 100 µM (inactive); in assay [15], > 100 µM (inactive); in assay [16], > 100 µM (inactive); in [17], 89.5 µM (inactive); in assay [19], 77.1 µM (inactive).

Turning to `C/C1=C/C[C@@H](/C(C)=C/c2csc(C)n2)OC(=O)C[C@H](O)C(C)(C)C(=O)[C@H](C)[C@@H](O)[C@@H](C)CCC1` [EPOTHILONE D], the GI50 is < 0.0001 µM (active) in [1]; under 0.0001 µM in assay [2]; < 0.0001 µM (active) in [3]; < 0.0001 µM (active) in assay [4]; < 0.0001 µM (active) in assay [5]; < 0.0001 µM (active) in [6]. Besides, the GI50 in [7], in [8], in assay [9], in assay [10], in assay [11] and in assay [20] was < 0.0001 µM (active) throughout. In addition, the GI50 in assay [14], in assay [15], in assay [16], in assay [17], in [18] and in assay [19] was < 0.0001 µM (active) throughout.

Turning to `Nc1n[n+](CC(=O)c2ccccc2)c2sc(-c3ccccc3)nn12`, the GI50 in assay [1] was > 100 µM (inactive); in assay [2] it was 75.2 µM; in assay [3] it was > 100 µM (inactive); in [4], 13.9 µM (inactive); in assay [5], 54 µM (inactive); in assay [6], > 100 µM (inactive). The GI50 in [7] is > 100 µM (inactive); in assay [8], > 100 µM (inactive); in assay [9], 60 µM (inactive); in assay [10], 55 µM (inactive); in assay [11], 61.2 µM (inactive); in assay [12] it was > 100 µM (inactive). Also, the GI50 in assay [13] was > 100 µM (inactive); in assay [14], 51.4 µM (inactive); in assay [15], 64.7 µM (inactive); in assay [16], > 100 µM (inactive); in assay [17], 84.7 µM (inactive); in assay [18], > 100 µM (inactive). Besides, the GI50 in assay [19] was > 100 µM (inactive).

As for `CN(C)CCCN1c2ccccc2C(C)(C)c2ccccc21` [DIMETACRINE], the GI50 in [1] is 12.6 µM (inactive); in assay [2], 16.3 µM; in [3], 14.7 µM (inactive); in [4] it was 13.1 µM (inactive); in assay [5], 15.1 µM (inactive); in assay [6] it was 15.3 µM (inactive). Further, the GI50 was 13.9 µM (inactive) in assay [7]; 14.9 µM (inactive) in assay [8]; 13.1 µM (inactive) in [9]; 11.8 µM (inactive) in assay [10]; 15.5 µM (inactive) in [11]; 14.7 µM (inactive) in assay [12]. Moreover, the GI50 in assay [13] is 15.4 µM (inactive); in assay [14] it was 14.8 µM (inactive); in assay [15], 17.4 µM (inactive); in [16], 14.1 µM (inactive); in assay [17] it was 14.2 µM (inactive); in assay [18], 15.5 µM (inactive). For the same compound, the GI50 in assay [19] is 15.6 µM (inactive).

For `C/C=C1/CC(C)C(C)(O)C(=O)OCC2C(O)CN3CCC(OC1=O)C23` (configuration not stated), the GI50 in assay [1] was > 100 µM (inactive); in assay [2], over 100 µM; in [3] it was > 100 µM (inactive); in assay [4] it was > 100 µM (inactive); in assay [5], > 100 µM (inactive); in assay [6] it was > 100 µM (inactive). The GI50 in [7], in assay [8], in assay [9], in assay [10], in assay [11] and in assay [20] was > 100 µM (inactive) throughout. In addition, the GI50 in assay [14], in assay [15], in assay [16], in [17], in [18] and in assay [19] was > 100 µM (inactive) each time.

For the compound `NCC1OC(n2cnc3c(N)ncnc32)CC1O` (configuration not stated), the GI50 in assay [1] is > 100 µM (inactive); in assay [2], over 100 µM; in assay [3] it was > 100 µM (inactive); in [4] it was > 100 µM (inactive); in assay [5] it was > 100 µM (inactive); in [6], > 100 µM (inactive). Also, the GI50 in assay [7], in assay [8], in assay [9], in assay [10], in assay [11] and in assay [12] was > 100 µM (inactive) throughout. In addition, the GI50 in [13], in assay [14], in [15], in assay [16], in assay [17] and in [18] was > 100 µM (inactive) in each case. The GI50 in [19] is > 100 µM (inactive).

On to `CC1(C)C(=O)/C=C\C(=O)C(C)(C)C(=O)/C=C\C(=O)C(C)(C)C(=O)/C=C\C(=O)C(C)(C)C(=O)/C=C\C1=O`, for which the GI50 is 12.6 µM (inactive) in assay [1]; 20.4 µM in [2]; 26.2 µM (inactive) in assay [3]; 21.9 µM (inactive) in assay [4]; 25.2 µM (inactive) in assay [5]; 26.8 µM (inactive) in [6]. Further, the GI50 was > 70 µM (inactive) in assay [7]; > 10 µM (inactive) in assay [8]; 4.97 µM (inactive) in assay [9]; 17.7 µM (inactive) in assay [10]; 19.4 µM (inactive) in [11]; 17.1 µM (inactive) in [12]. Further, the GI50 is 26.5 µM (inactive) in [13]; 45.9 µM (inactive) in [14]; 23.6 µM (inactive) in assay [15]; 41.1 µM (inactive) in assay [16]; 41.8 µM (inactive) in [17]; 52.5 µM (inactive) in [18]. The GI50 in assay [19] is > 63 µM (inactive).

Turning to `CC(N)(/C=C/c1ccccc1)C(=O)O` (configuration not stated), the GI50 in assay [1] was > 100 µM (inactive); in assay [2], over 100 µM; in assay [3] it was > 100 µM (inactive); in assay [4] it was > 100 µM (inactive); in [5], > 100 µM (inactive); in assay [6], > 100 µM (inactive). Besides, the GI50 in assay [7], in [8], in assay [9], in [10], in [11] and in [12] was > 100 µM (inactive) each time. The GI50 in [13], in assay [14], in assay [15], in assay [16], in [17] and in [18] was > 100 µM (inactive) in each case. Moreover, the GI50 in assay [19] was > 100 µM (inactive).

For the origin of these results see ChEMBL document CHEMBL1201862, “PubChem BioAssay data set” (2004).
